# In patent EP4772520A1, “NOVEL PRODRUG-TYPE ANTICANCER AGENT TARGETING CANCER-SPECIFIC ENZYME ACTIVITY” (priority 2023, dated 2025):
# Like-named read-outs stand apart in the source and are kept apart here.
# Key:
# [1] = tested on: lung squamous carcinomas cell H226; assay: Tumor proliferation suppression test in H226 subcutaneous tumor model; assay type: in vivo, mice; conditions: 200 mg/kg i.v. 3 times a week for 2 weeks, n = 5, vs Vehicle
# Method: 200 mg/kg of SN38-βGlcNAc was intravenously administered 3 times a week for 2 weeks to subcutaneous tumor model mice of lung squamous carcinomas cell H226, and the tumor proliferation suppression effect was evaluated. The Vehicle (DMSO administration) group and the SN38-βGlcNAc administration group were n = 5, respectively.
# The drug SN38-βGlcNAc was prepared by dissolving a 200 mM of DMSO stock in PBS, and was intravenously administered from the tail vein 3 times a week for 2 weeks at a dose of 200 mg/kg with a total amount of 100 µL. • (3) The body weight was measured on the day of evaluation, and the tumor volume was evaluated with a vernier caliper. • (4) Tumors were resected on day 19 from the start of dosing and their sizes were compared.
# [2] = Kinetic test in intraperitoneal administration; assay type: in vivo, Mice; conditions: 30 mg/kg i.p.
# Method: A specific procedure of the pharmacokinetics test is shown below. • (1) SN38-βGal (30 mg/kg) was dissolved in 100 µL of PBS and administered by i.p. • (2) 150 to 200 µL of anesthesia (in the case of a mixture of three types of Domitor + Betorphal + Mitazolam) was intraperitoneally administered 5 minutes before dissection at each time. • (3) The inside of a syringe was coated with sodium heparin, and at each evaluation time, the mouse was quickly stuck to the dissecting pad, and the abdomen was opened without bleeding, and whole blood was collected from the right ventricle with a 23 G needle. 100 µM β-Galactosidase inhibitor was added to whole blood. • (4) After whole blood collection, brain, heart, lung, liver, pancreas, spleen, kidney, stomach, small intestine, large intestine, muscle, and fat were taken out. As the muscle, a muscle near the thigh was resected. The weight of each organ was measured. • (5) Whole blood was centrifuged at 1200 G for 15 min at 4°C, and 200 µL of supernatant was collected. 800 µL of a solution of MeOH/MeCN = 1:1 (containing Rhodamine 123 = 25 µM as an internal standard) was added thereto, and the mixture was allowed to stand for 10 minutes. • (6) After standing, centrifugation was performed at 1700 G for 15 min at 4°C, and the supernatant was collected. About 80 µL of the mixture was fractionated, loaded on a Cosmo Spin Filter G (0.2 um), centrifuged at 12000 G for 5 min at 4°C, and filtered to collect a sample. • (7) Each resected organ was finely cut and put into a tube of Lysing Matrix D, 1000 µL of Lysis Buffer (added with 100 µM β-Galactosidase inhibitor) was added thereto, and the mixture was crushed with a shaker. • (8) The supernatant was collected from the tube of Lysing Matrix, and then centrifuged at 10,000 G for 5 min at 4°C to collect the supernatant to obtain a lysate solution. • (9) To 100 µL of the organ lysate solution, 200 µL of MeOH/MeCN = 1:1 (containing 30 µM of Rhodamine 123 as an internal standard) was added, and the mixture was allowed to stand for 10 minutes. • (10) Centrifugation was performed at 1700 G for 15min at 4°C to collect 200 µL of the supernatant. The supernatant was loaded on a Cosmo Spin Filter G (0.2 µm) and centrifuged at 12000 G for 5 min at 4°C to collect a sample. • (11) 50 µL of purified water and 50 µL of a filtered plasma sample or organ lysate sample were mixed, 10 µL of the mixture was injected into HPLC, and data of the area under the curve of the PDA spectrum at 380 nm (derived from SN 38) and 490 nm (derived from Rhodamine 123) were acquired, and then the respective numerical values were calculated from the volume for blood and the weight for organs by one inspection amount of Rhodamine 123.
# A specific procedure of the intraperitoneal concentration evaluation test is shown below. • (1) Intraperitoneal administration (i.p.) was performed on an evaluation amount of the drug. • (2) 2.0 mL of PBS was administered by i.p. at each evaluation time, and the abdomen was immediately massaged and sacrificed so that the drug could be collected as much as possible on the PBS side after administration. A small hole was made in the abdomen, and PBS in the abdominal cavity was quickly collected with a 1.0 mL syringe in a pushing manner, and this solution was used as an peritoneal washing solution. • (3) To 200 µL of the collected peritoneal washing solution, 800 µL (containing Rhodamine 123 = 25 µM) of 800 µL MeCN/MeOH = 1:1 was added to precipitate proteins. The supernatant was collected by centrifugation at 1700 G for 5 min at 4°C. • (4) 80 µL of the recovered supernatant was loaded on a cosmo spin filter G and centrifuged at 12000 G for 5 min at 4°C, and 50 µL of purified water was added to 50 µL of the recovered material to adjust the total amount to 100 µL to prepare a sample. • (5) The concentration of SN38-βGal was measured by HPLC, and the concentration of the recovered peritoneal washing solution was calculated.
# [3] = target: T1, Human β-Galactosidase 1 (GLB1) (Homo sapiens, UniProt P16278); assay: Evaluation of drug release using LC-MS; assay type: biochemical; conditions: GLB1 purified enzyme added
# T1 sequence (P16278 29-677): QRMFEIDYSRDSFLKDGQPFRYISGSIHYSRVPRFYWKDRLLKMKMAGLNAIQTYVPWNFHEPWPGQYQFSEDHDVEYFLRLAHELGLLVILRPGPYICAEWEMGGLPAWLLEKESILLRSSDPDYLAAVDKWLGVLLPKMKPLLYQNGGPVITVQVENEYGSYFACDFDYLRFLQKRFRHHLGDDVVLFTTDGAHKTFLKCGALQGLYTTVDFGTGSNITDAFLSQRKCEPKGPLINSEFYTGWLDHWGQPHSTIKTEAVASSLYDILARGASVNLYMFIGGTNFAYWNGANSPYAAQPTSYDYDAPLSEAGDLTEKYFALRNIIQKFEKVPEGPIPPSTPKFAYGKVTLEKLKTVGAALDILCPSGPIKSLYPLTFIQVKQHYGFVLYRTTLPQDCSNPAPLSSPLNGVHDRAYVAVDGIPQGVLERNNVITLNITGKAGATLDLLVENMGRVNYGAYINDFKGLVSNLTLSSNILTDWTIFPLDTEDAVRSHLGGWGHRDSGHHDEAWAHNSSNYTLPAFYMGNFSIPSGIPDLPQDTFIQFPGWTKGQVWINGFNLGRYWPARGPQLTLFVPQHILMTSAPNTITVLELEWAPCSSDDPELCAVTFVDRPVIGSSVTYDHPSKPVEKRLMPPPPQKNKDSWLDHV
# Excerpt: Reactivity with Human β-Galactosidase 1 (GLB1), which is an assumed target enzyme of SN38-βGal, was confirmed using LC-MS.
SMILES,tumor proliferation suppression effect (tumor volume) [1],time of highest blood concentration [2],organ distribution ([2]; 10 minutes to 60 minutes after administration),intraperitoneal concentration ([2]; at 30 minutes),"half-life ([2]; mouse, blood, ip, read-out: blood half-life) [min]","AUC(0-inf) ([2]; mouse, in vivo, ip) [ng·h/mL]","AUC(0-t) at 1 h ([2]; mouse, in vivo, ip, read-out: AUC0-1h) [ng·h/mL]","half-life ([2]; mouse, in vivo, ip, read-out: t1/2 (converted)) [min]",release of SN38 [3]
CCc1c2c(nc3ccc(O[C@@H]4O[C@H](CO)[C@@H](O)[C@H](O)[C@H]4NC(C)=O)cc13)-c1cc3c(c(=O)n1C2)COC(=O)[C@]3(O)CC [SN38-βGlcNAc],the tumor growth was almost completely suppressed,–,–,–,–,–,–,–,–
CCc1c2c(nc3ccc(O[C@@H]4O[C@H](CO)[C@H](O)[C@H](O)[C@H]4O)cc13)-c1cc3c(c(=O)n1C2)COC(=O)[C@]3(O)CC [SN38-βGal],–,around 10 minutes,"the absorption from the small intestine was large, and only a slight distribution was confirmed in the brain",about 17%,~30,15900,15400,11.8,the release of SN38 showing an anticancer effect was confirmed
